The values that follow come from a melting point compilation (Tetko et al.; mined from patent text by program, amines drawn as free bases though some values may be those of a salt).

Take `CCCCNC(=O)C(=O)NCCCCCBr`: the melting point was 109 to 110 °C.

With `CSc1nc2c(C)cccc2c2c1CCN2c1ccccc1C`, the melting point fell in the range of 111 to 113 °C.

For `CCOC(=O)[C@@](C)(C#N)[C@@H](c1ccccc1OC)c1cccc2ccccc12`, the melting point fell in the range of 134 to 136 °C. Compound `CC(C)Oc1nc(CO)sc1C(=O)NCc1ccc(Cl)cc1Cl` came in with a melting point of 127 to 128 °C.

Turning to `O=C(c1ccccc1)N1CCN(c2ccccc2)CCN1C(=O)c1ccccc1`, the melting point was in the range of 190 to 192 °C. Regarding `COc1ccccc1N1CCN(CCCNC(=O)Cc2cccc3c(=O)c(C)c(-c4ccccc4)oc23)CC1`, the melting point was 137 to 140 °C. Consider `CCCO[Si](C)(CCN=C(O)C1(C)C(C)(C(=O)O)C(C)(C(=O)O)C1(C)C(O)=NCC[Si](C)(OCCC)OCCC)OCCC` (stereo not drawn), for which the melting point turned out to be 151 °C.

In the case of `COc1cccc2c1CC[C@@H](O)[C@@H]2N1CCCC1` (relative stereo), the melting point was in the range of 113 to 115 °C. Take `Cc1cc(-c2nc3cccnn3c2-c2ccnc(NC(=O)Nc3cccnc3)c2)ccc1F`: the melting point was 233 to 234 °C. `O=C(O)c1nccc(-c2ccccc2)c1C(=O)O` came in with a melting point of 146 to 148 °C. `Cc1c(C(=O)c2cccnc2)sc2ccc(C(=O)O)cc12` returned a melting point of 264 to 265 °C. As for `Cn1c(C(F)(F)F)cc(=O)n(-c2cc(S(=O)(=O)n3cccn3)c(Cl)cc2F)c1=O`, the melting point is 172 °C.

With `CC(=O)Oc1cccc2c1C(=O)c1c(OC(C)=O)cccc1C2C(=O)C1CCCC1`, the melting point was determined as 180 °C. As for `Nc1nc2ccccc2n1-c1cccc(-c2cscc2CO)c1`, the melting point is 106 to 108 °C.

Turning to `CC(=O)COc1ccc(-c2ccc(=O)n(Cc3ccc(Cl)cc3F)c2)cc1`, the melting point came to 127 °C. With `CC(CCC(=O)O)c1ccc2c(c1)C(=O)c1ccccc1CO2` (stereo not drawn), the melting point lay in the range of 120 to 124 °C. To `COc1cc(C=O)cc(OC)c1F` belongs 97 to 98 °C. `C=C1C[C@@H]2[C@H](CC[C@]3(C)C(=O)CC[C@@H]23)[C@@]2(C)CCC(=O)C(OC)=C12`: the melting point lay within 196 to 198 °C.

Regarding `O=C(O)COc1cccc2c1CCC(CNC(=O)OC(c1ccccc1)c1ccccc1)C2` (stereo not drawn), the melting point lay within 160 to 161 °C. `Nc1ccc(S(=O)(=O)c2cccc3cnccc23)cc1` showed a melting point of 207 to 209 °C. To `N#Cc1nn(-c2c(Cl)cc(C(F)(F)F)cc2Cl)cc1C(=O)C(F)(F)F` belongs 124 to 125 °C; to `Nc1n[nH]c2cc(CN3CCN(S(=O)(=O)c4cc5ccc(Cl)cc5s4)CC3=O)ccc12`, 274 to 276 °C. To `C[C@@H](NC(=O)c1ccc(-c2csnn2)cc1)[C@](O)(Cn1cncn1)c1ccc(F)cc1F` belongs 196 to 198 °C; to `COC(=O)c1cccc(CC2COc3ccc(OCc4nc5cc(F)ccc5s4)cc3C2O)c1` (stereo not drawn), 171 to 173 °C. `CCc1nc(-c2ccc(OC)cc2)c(-c2cccnc2)s1` displayed a melting point of 59 to 60 °C. The compound `COc1ccc(CNc2cc(F)cc(CO)c2)cc1` displayed a melting point of 93 °C. As for `C[C@]1(CN2CCN(C(=O)COc3ccc(Cl)cc3)CC2)Cn2cc([N+](=O)[O-])nc2O1`, the melting point fell in the range of 179 to 180 °C. `CC(C)(C)OC(=O)c1nc(-c2ccccc2)[nH]c1-c1ccccn1` returned a melting point of 211 to 213 °C. With `O=C(c1ccn2c1CSC2c1cccnc1)c1cn(C(=O)NCCc2c[nH]cn2)c2cc(-c3ccc(F)cc3)ccc12` (stereo not drawn), the melting point fell in the range of 156 to 158 °C. Compound `COc1cnc(Cl)c(C(=O)O)c1` yielded a melting point of 169 to 170 °C. Compound `C=CCOc1ccc(-c2cc(N)n[nH]2)cc1` showed a melting point of 158 to 159 °C. To `O=c1oc2ccc(OC3CCCCO3)cc2s1` (stereo not drawn) belongs 61 to 63 °C; to `CC(C)Oc1ccc(Oc2ccc3c(c2)c(C(=O)O)c(CC(=O)O)n3-c2ccc(C(C)C)cc2)cc1`, 205 to 210 °C. To `CCCCCCCCS(=O)c1ccc(CC(COC(C)=O)(COC(C)=O)NC(C)=O)cc1` (stereo not drawn) belongs 70 to 72 °C; to `COc1cccc(-n2c(CCl)nc3ccccc3c2=O)c1`, 180 to 182 °C; to `O=S(=O)(N[C@H](CO)Cc1c[nH]c2ccccc12)c1cccc2ccccc12`, 85 to 87 °C. Compound `COc1ncnc(-c2cc([N+](=O)[O-])c(C#N)cc2F)c1Cl` came in with a melting point of 161 to 162 °C. Regarding `CC(=O)Nc1cc2c3c(c1)[nH]c(=O)n3C[C@H](C)N(CC1CC1)C2`, the melting point came to 244 °C. The compound `N#CCCNC(=S)C1=CC(CF)(CF)Oc2cc(Cl)c(Cl)cc21` displayed a melting point of 154 to 155 °C. Regarding `CCn1cc(C(=O)O)c(=O)c2c1SC(=NO)C2`, the melting point fell in the range of 332 to 334 °C. For the compound `CCN(CC)C(=O)Cc1cc(C(C)(C)C)c(O)c(C(C)(C)C)c1`, the melting point was 111 to 113 °C. Turning to `N#Cc1cccc(-c2ccc(-c3cccc(C#N)c3)o2)c1`, the melting point fell in the range of 163 to 164 °C.

In the case of `CNc1cc(Nc2ccc(OC)cc2)ncn1`, the melting point fell in the range of 174 to 182 °C. Take `COc1ccc(C2NCc3c2[nH]c2ccccc2c3=O)cc1OC` (stereo not drawn): the melting point fell in the range of 223 to 225 °C. The value for `O=[N+]([O-])c1cccc2cc(-c3ncns3)[nH]c12` was 186 to 187 °C; that for `O=C(c1ccc(-c2ccc(CBr)cc2)cc1)c1ccc(Cl)cc1Cl` was 92 °C; that for `CCCCc1oc2ccccc2c1C(=O)NCc1ccc2c(-c3ccc(OC)cc3)c(O)ccc2c1` was 118 to 122 °C. On to `C[C@H]1C[C@@](O)(c2csc(S(=O)(=O)c3ccc4c(c3)CCC(=O)N4C)c2)CCO1`, for which the melting point was 64 to 66 °C. Turning to `Nc1cccc2c1ccn2S(=O)(=O)c1cccc2ccccc12`, the melting point was 133 to 134 °C.

Compound `CCCCOC(=O)Nc1ccnc(-c2ccncc2)n1` registered a melting point of 180 to 182 °C. Take `O=C1c2ccccc2C(=O)N1CC(=O)N1c2ccccc2N(Cc2ccccc2F)C(=O)[C@H]2CCC[C@H]21` (relative stereo): the melting point was 250 to 253 °C. `C=CC(=O)Nc1cccc(CCCc2n[nH]c3cc(C)nn23)c1` returned a melting point of 195 to 197 °C.

The compound `O=C1CCCN1c1ccnn1-c1c(Cl)cc(C(F)(F)F)cc1Cl` had a melting point of 130 to 131 °C. For `CCOc1ccc(Nc2nc3nc[nH]c3c(=O)[nH]2)cn1`, the melting point was more than 350 °C. `COC(=O)c1ccc(-c2nnc(C)o2)s1` yielded a melting point of 142 to 145 °C. As to `CC[C@H](CC[N+](=O)[O-])C(=O)N[C@@H](Cc1ccccc1)C(=O)OC`, the melting point lay in the range of 86.2 to 87.8 °C. As to `CCc1c(C(=O)OC(C)C)ncc2[nH]c3ccc4nc(C)cnc4c3c12`, the melting point lay in the range of 236 to 238 °C.

`CCCC1Nc2ccc(S(=O)(=O)N3CCCCC3)cc2S(=O)(=O)N1` (stereo not drawn) yielded a melting point of 147 to 151 °C. To `CCc1cc(C)nc2c(C)ccc(N)c12` belongs 60 to 62 °C; to `COc1cc(Cl)c(N2CCN(c3cccc(C(F)(F)F)c3)CC2)c(Cl)c1`, 87 to 89 °C. As for `COc1cc2c(Nc3ccc(Sc4nccn4C)c(Cl)c3)c(C#N)cnc2cc1N1CCC(N2CCN(C)CC2)CC1`, the melting point was in the range of 235 to 237 °C. Compound `O=C1NCCN1C1CCC(NCC(O)COc2ccc(OCC3CC3)cc2)CC1` (stereo not drawn) registered a melting point of 163 to 165 °C.

In turn, `CCc1c(C)n(C)c(=O)n(-c2cc(OC(C)C)c(Cl)cc2F)c1=O` gave a melting point of 124 to 125 °C.

Compound `O=C(c1cc2[nH]nc(-c3cc4cc(CO)ccc4[nH]3)c2s1)N1CCN(c2ccc(F)cc2)CC1` registered a melting point of 156 to 158 °C. Compound `COc1ccc(-c2[nH]c(-c3ccc(NCCC(C)C)cc3)nc2C(=O)Nc2nccs2)cc1` yielded a melting point of 235 to 239 °C. Compound `CN(C(=O)Nc1nc(OCC(F)(F)F)cc(OCC(F)(F)F)c1F)c1ccc(Br)cc1` gave a melting point of 89 to 90 °C. `CCc1nc2cnc3ccc(OCc4ccccc4)cc3c2n1C` displayed a melting point of 168 to 169 °C.

The compound `Cc1ccc(C(=O)O)cc1NC(=O)C(CS)Cc1ccccc1` (stereo not drawn) showed a melting point of 192 to 194 °C. In turn, `Cc1ccc(C(O)CN2c3nc(-c4ccncc4)cc(=O)n3CCC2c2ccccc2)cc1` (stereo not drawn) came in with a melting point of 198 to 200 °C. Compound `CCCCOc1cc(=O)n(C)c2ccccc12` returned a melting point of 77 to 80 °C. Consider `CCc1c(Cl)c(Oc2ncc(C(F)(F)F)cc2Cl)nn1C(=O)NC`, for which the melting point lay in the range of 88 to 89 °C. As for `C=CCc1c(O)cc(OC)c2c(C)cc(=O)oc12`, the melting point came to 198 °C. As for `Cn1cnc(COc2nn3c(-c4ccc(F)cc4)nnc3cc2-c2ccsc2)n1`, the melting point lay in the range of 254 to 255 °C. `Oc1ccc(Cl)cc1C(O)c1ccc(Cl)cc1` (stereo not drawn) returned a melting point of 106 to 107 °C.

For the compound `Nc1ccc(Sc2cc(F)ccc2CC(=O)O)cc1`, the melting point lay in the range of 151 to 155 °C.

`Cc1ccc(C(=O)C(=O)c2ccc(Br)cc2)cc1` displayed a melting point of 132 to 135 °C.

The compound `O=C1CCCCCCCCCCC(=O)OCCC1` displayed a melting point of 33 °C. The value for `O=C(O)c1ccc(S(=O)(=O)NCCSC2c3ccccc3COc3ccc(OCc4ccc5ccccc5n4)cc32)cc1` (stereo not drawn) was 113 to 115 °C; that for `CC(C)(C)C(NC(=O)OCc1ccccc1)C(=O)O` (stereo not drawn) was 96 to 99 °C. With `CC(C)c1nc(N)oc1-c1cccc2ccccc12`, the melting point was in the range of 127 to 129 °C. In turn, `COc1cc2c(Nc3ccc(C)c(O)c3)ncnc2cc1OCc1cccnc1` yielded a melting point of 258 to 259 °C. The value for `Cc1ccc(Sc2cncc3sc(C(N)=O)cc23)cc1C` was 192 to 194 °C; that for `Cc1ccn(-c2ccc(S(C)(=O)=O)cc2)c1-c1ccc(F)cc1` was 157 to 158 °C; that for `CCc1nn(C)c(N)c1Cl` was 50 to 51 °C.

In turn, `COc1ccc(-c2cc(=O)c3c(OC)c(I)c(OC)cc3o2)cc1` had a melting point of 191 to 194 °C. Turning to `O=C(N[C@@H](CO)c1nc2cc(Br)ccc2[nH]1)c1ccc(C(=O)N2CC=CC2)c(Cl)c1`, the melting point fell in the range of 124 to 126 °C. Compound `N=C(N)NCCC[C@H](NC(=O)c1ccccc1SSc1ccccc1C(=O)N[C@@H](CCCNC(=N)N)C(=O)O)C(=O)O` came in with a melting point of 208 to 211 °C. Take `CCCCCc1c(C(C)(C)O)nc(C(C)C)c(CO)c1-c1ccc(F)cc1`: the melting point fell in the range of 180 to 182 °C.
